≈ marks a conversion by molar mass, not a printed value.
Assays:
[1] = Effect of different auxiliaries on the solubility of HMLO active ingredient in water at 293° K; type: physicochemical; details: for solubility: water, 293° K
Procedure: Effect of Different Auxiliaries on the Solubility of HMLO Active Ingredient in Water at 293° K.

[2] = Absorption of HMLO in vitro and in vivo in the presence of bile acids; details: compared with pure active ingredient and known preparations
Description: This improvement is observed also in comparison with the oily preparation, although the same mechanism for affecting the absorption obviously forms the basis for this preparation.

[3] = In vivo absorption of HMLO active ingredient by rabbits after oral administration as a function of the auxiliaries used; details: 12 mg/kg
Description: In Vivo Absorption of HMLO Active Ingredient by the Rabbits After Oral Administration as a Function of the Auxiliaries Used.

[4] = cited from earlier work

CCCCCCCCCCCC(=NO)c1cc(C)ccc1O [HMLO, 2-hydroxy-5-methyllaurophenoxime]
Solubility in water ([1]; pure HMLO, no auxiliary): insoluble | solubility ([1]; auxiliary Tween (R) 80 0.75%): 130 µg/mL (≈ 426 µM) | solubility ([1]; auxiliary benzalkonium bromide 1.00%): 24 µg/mL (≈ 78.6 µM) | solubility ([1]; auxiliary polyethylene glycol 6500 10.00%): 1 µg/mL (≈ 3.27 µM) | solubility ([1]; auxiliary propylene glycol 1.00%): 2.3 µg/mL (≈ 7.53 µM) | solubility ([1]; auxiliary sodium desoxycholate 0.75%): 2750 µg/mL (≈ 9000 µM) | Absorption [2]: improved clearly in vitro and in vivo in the presence of bile acids | Absorption ([3]; bile acids as auxiliary, compared with oil): distinctly exceeded by the use of bile acids | Absorption ([3]; oil as auxiliary): clearly affected by the use of oil as auxiliary | Absorption ([3]; without auxiliaries): not absorbed to a measurable extent | Side effects on long-term treatment ([4]; oily preparation): occurrence of diarrhea | Bioavailability ([4]; solutions and emulsions containing oils): the bioavailability can be increased
